The results in this text go back to patent publication US20210154190A1, “SHP2 INHIBITOR COMPOSITIONS AND METHODS FOR TREATING CANCER” (Revolution Medicines, Inc., priority 2018, published 2021).

One experiment concerns the target T1, human SHP2-FL P491S (Homo sapiens, UniProt Q06124, P491S).
T1 sequence (Q06124 1-593 P491S): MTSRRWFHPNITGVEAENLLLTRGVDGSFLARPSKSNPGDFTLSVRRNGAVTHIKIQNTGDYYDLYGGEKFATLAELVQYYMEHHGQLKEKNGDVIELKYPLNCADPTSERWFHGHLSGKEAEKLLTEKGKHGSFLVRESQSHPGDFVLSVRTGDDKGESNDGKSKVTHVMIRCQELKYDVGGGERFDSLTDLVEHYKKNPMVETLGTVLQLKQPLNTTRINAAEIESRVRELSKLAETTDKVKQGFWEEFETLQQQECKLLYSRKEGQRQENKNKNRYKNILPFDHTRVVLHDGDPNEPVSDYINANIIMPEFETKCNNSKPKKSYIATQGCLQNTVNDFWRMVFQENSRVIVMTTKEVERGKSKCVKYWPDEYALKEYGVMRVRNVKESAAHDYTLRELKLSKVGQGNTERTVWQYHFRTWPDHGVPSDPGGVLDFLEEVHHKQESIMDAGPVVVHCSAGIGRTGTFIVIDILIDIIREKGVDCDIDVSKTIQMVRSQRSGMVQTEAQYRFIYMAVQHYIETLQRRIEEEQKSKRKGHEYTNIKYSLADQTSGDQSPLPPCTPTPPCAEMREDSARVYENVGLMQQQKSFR
As to the kind of experiment: SHP2 allosteric inhibition assay (DiFMUP), P491S. The class given is biochemical. On the procedure:
(§1) Full-length SHP2 is allosterically activated through binding of bis-tyrosyl-phorphorylated peptides to its Src Homology 2 (SH2) domains. The latter activation step leads to the release of the auto-inhibitory interface of SHP2, which in turn renders the SHP2 protein tyrosine phosphatase (PTP) active and available for substrate recognition and reaction catalysis. The catalytic activity of SHP2 was monitored using the surrogate substrate DiFMUP in a prompt fluorescence assay format.
(§2) […] […] 50 μl stop solution (0.1 mM sodium pervanadate) was added to each well, the plate was shaken briefly to mix, and read in endpoint mode on a SpectraMax M5 plate reader (Molecular Devices) using excitation and emission wavelengths of 340 nm and 450 nm. Data was imported into GraphPad Prism. Plots of fluorescence intensity vs. log Molar [compound] were created and modeled with a 3-parameter sigmoidal concentration response equation in order to estimate IC50.
(§3) Reactions were then allowed to proceed for 30 minutes and stopped by the addition of a phosphatase inhibitor, sodium pervanadate. De-phosphorylation of DiFMUP results in production of a fluorescent product. Product fluorescence was determined and plotted as a function of compound concentration in order to determine the IC50 for each compound on each mutant using a four parameter sigmoidal dose response function in Prism (GraphPad).
(§4) NsCs mimics the role of the cytosolic domain of a protein tyrosine kinase in this model system.

For the next experiment, the target named is T2, human SHP2-FL L262R (Homo sapiens, UniProt Q06124, L262R).
T2 sequence (Q06124 1-593 L262R): T1 sequence (Q06124 1-593 P491S) with L262R, S491P
As to the kind of experiment: SHP2 allosteric inhibition assay (DiFMUP), L262R. In kind it is biochemical. On the procedure:
as §1, §2, §3, §4

In another experiment the target is T3, SHP2 E69K (Homo sapiens, UniProt Q06124, E69K).
T3 construct: expressed in transfected cells; host or cells: Flp-In T-REx-293 (T-REx-293-SHP2)
As to the kind of experiment: EGF-induced pERK AlphaLISA in T-REx-293-SHP2 cells, E69K. The class given is cell-based. The conditions noted are these: Variant E69K. The protocol:
An experimental system was creating to test the activity of SHP2 mutants on an isogenic background (FIG. 6). The Flp-In T-REx-293 cell line was obtained from Gibco® and cultivated in high glucose DMEM™ containing 2 mM L-glutamine (Hyclone®), supplemented with 10% FBS (Hyclone®), 1% penicillin/streptomycin (Gibco®), 100 μg/mL Zeocin™ (Gibco®), and 15 μg/mL blasticidin (Gibco®) in a humidified cell culture incubator at 37° C., 5% CO2.
Wild type or mutant SHP2 variants were synthesized and subcloned into the pcDNA5/FRT/TO vector (ThermoFisher). Plasmids were co-transfected with the pOG44 Flp recombinase expression plasmid (ThermoFisher®) into Flp-In T-REx-293 cells using X-tremegene 9 DNA transfection reagent (Sigma®), according to the manufacturer's instructions. […]
For the final 5 minutes of drug treatment, cells were stimulated with 50 ng/mL Epidermal Growth Factor (Sigma®). […] Samples were read using an EnVision Multilabel Plate Reader (Perkin Elmer®) using standard AlphaLISA settings. Assay data was plotted and EC50 values were determined using four-parameter concentration-response model in GraphPad Prism 7. […]

Positions count from the first letter of the chain named. Values joined by “and” are separate entries in the source; they are usually repeats but may differ in a detail not shown here. Identical values can stand only once. Like-named read-outs stand apart in the source and are kept apart here.

Regarding `Nc1nc(N2CCC3(CCC[C@H]3N)CC2)cnc1Sc1ccnc(Cl)c1Cl` [Compound 1], the IC50 is > 10000 nM and 10600 nM and 7670 nM at human SHP2-FL P491S (IC50 (nM), SHP2 P491S 0.5 μM NsCs peptide (Activated), human SHP2-FL P491S, 0.5 μM NsCs peptide (activated)); 258 nM and 274 nM and 253 nM and 282 nM at human SHP2-FL P491S (human SHP2-FL P491S alone, no peptide (non-activated), read-out: IC50 (nM), SHP2 P491S No Peptide Control (Non-Activated)); 257 nM and 275 nM and 251 nM and 282 nM on human SHP2-FL P491S (human SHP2-FL P491S alone, no peptide (non-activated), read-out: pIC50, SHP2 P491S No Peptide Control (Non-Activated) (converted)); > 10000 nM and 10700 nM and 7590 nM at human SHP2-FL P491S (pIC50, SHP2 P491S 0.5 μM NsCs peptide (Activated), human SHP2-FL P491S, 0.5 μM NsCs peptide (activated)); 79.4 nM and 62.2 nM and 69.2 nM and 74.6 nM at human SHP2-FL L262R (IC50 (nM), SHP2 L262R 0.5 μM NsCs peptide (Activated), human SHP2-FL L262R, 0.5 μM NsCs peptide (activated)); 2.83 nM and 3.37 nM and 2.75 nM and 3.43 nM at human SHP2-FL L262R (human SHP2-FL L262R alone, no peptide (non-activated), read-out: IC50 (nM), SHP2 L262R No Peptide Control (Non-Activated)). For the same compound, the IC50 at human SHP2-FL L262R (human SHP2-FL L262R alone, no peptide (non-activated), read-out: pIC50, SHP2 L262R No Peptide Control (Non-Activated) (converted)) is 2.82 nM and 3.39 nM and 2.75 nM; against human SHP2-FL L262R (pIC50, SHP2 L262R 0.5 μM NsCs peptide (Activated), human SHP2-FL L262R, 0.5 μM NsCs peptide (activated)) it was 79.4 nM and 61.7 nM and 69.2 nM and 74.1 nM.
On to `Cc1nc(N2CCC3(CC2)CO[C@@H](C)[C@H]3N)c(CO)nc1-c1cccc(Cl)c1Cl` [Compound B], for which the figures for the Biochemical sensitivity result on human SHP2-FL P491S (Variant P491S) and on human SHP2-FL L262R (Variant L262R) were “no (Sensitive if IC50 < 2000 nM)” and “yes (Sensitive if IC50 < 2000 nM)”, respectively. In addition, the Cellular sensitivity entry at SHP2 E69K is given as “yes (Sensitive if IC50 < 2000 nM)”.
